In patent US5135955A, “Propanamine derivatives” (Eli Lilly and Company, priority 1989, dated 1992):
Counter-ions that a name gives are not always drawn.

Tested on: thromboplastin clotting time in human plasma
Test: prothrombin time test (thromboplastin clotting time in human plasma)
Format: biochemical
Details: for plasma prothrombin time: 37° C., human plasma
Experimental: Briefly, to 0.1 ml of each of human plasma, normal saline and thromboplastin was added 0.03 ml of the test compound of the present invention (2 mg/ml in 50 percent methanol). The clotting time was measured at 37° C. with a Fibrometer.
^a Expressed in seconds
^b Concentration of compound tested in micrograms per milliliter of […]

[1] = 11 micrograms per milliliter of plasma
[2] = 22 micrograms per milliliter of plasma
[3] = 45 micrograms per milliliter of plasma, hydrochloride
[4] = 90 micrograms per milliliter of plasma, hydrochloride
[5] = 45 micrograms per milliliter of plasma
[6] = 90 micrograms per milliliter of plasma
[7] = 180 micrograms per milliliter of plasma

| SMILES | plasma prothrombin time [5] [s] | plasma prothrombin time [6] [s] | plasma prothrombin time [7] [s] | further results |
| --- | --- | --- | --- | --- |
| CC(CCc1ccc(OCC2CCCC2)cc1)N(C)C (stereo not drawn) [Example 80, 4-Cyclopentylmethoxy-N,N-α-trimethylbenzenepropanamine hydrochloride] |  |  |  | plasma prothrombin time [1]: 17 s; plasma prothrombin time [2]: 19 s; plasma prothrombin time [3]: 24 s; plasma prothrombin time [4]: 43 s; plasma prothrombin time (180 micrograms per milliliter of plasma, hydrochloride): 88 s |
| Cl.NCC(Cc1ccc(-c2ccccc2)cc1)c1ccccc1 (stereo not drawn) [Example 7, β-Phenyl[1,1'-biphenyl]-4-propanamine hydrochloride] | 36 | 200 | > 300 | plasma prothrombin time [2]: 25 s |
| CCCCCCCCOc1ccc(CC(CN)c2ccc(OC)c(OC)c2)cc1 (stereo not drawn) [Example 17, 4-(Octyloxy)-β-(3,4-dimethoxy)phenylbezenenepropanamine hydrochloride] | 48 | 81 | 240 | plasma prothrombin time [2]: 21 s |
| CCCCCCOc1ccc(CC(CNCCN(C)C)c2cc(OC)c(OC)c(OC)c2)cc1.Cl.Cl (stereo not drawn) [Example 31, N'-[3-[4-(Hexyloxy)phenyl]-2-(3,4,5-trimethoxyphenyl)-propyl]-N,N-dimethyl-1,2-ethanediamine dihydrochloride] |  |  | 150 |  |
| CCCCCCCOc1ccc(CC(CN)c2ccc(C(CN)Cc3ccc(OCCCCCCC)cc3)cc2)cc1.Cl.Cl (stereo not drawn) [Example 13, β,β'-Bis[[4-(heptyloxy)phenyl]methyl]-1,4-benzenediethanamine dihydrochloride] |  |  | 200 |  |
| COc1ccc(C(CN)Cc2ccc(OC)c3ccccc23)cc1OC (stereo not drawn) [Example 23, β(3,4-Dimethoxy)phenyl-1-(4-methoxy)naphthalenepropanamine hydrochloride] |  |  | 101 |  |
| CCCCOc1ccc(CC(C)CN(C)C)cc1.Cl (stereo not drawn) [Example 78, 4-Butoxy-N,N,β-trimethylbenzenepropanamine hydrochloride] | 23 | 31 | 67 |  |
| CCCCCCCOc1ccc(CCC(C)N)cc1 (stereo not drawn) [Example 51, 4-(Heptyloxy)-α-methylbenzenepropanamine hydrochloride] | 25 | 52 | > 300 |  |
| CC(CCc1ccc(C(C)(C)C)cc1)N(C)C.Cl (stereo not drawn) [Example 83, 4-(1,1-Dimethylethyl)-N,N,α-trimethylbenzenepropanamine hydrochloride] | 21 | 26 | 37 |  |
| CCCCCCCOc1ccc(CCC(C)NCCN(C)C)cc1 (stereo not drawn) [Example 49, N'-[3-[4-(Heptyloxy)phenyl]-1-methylpropyl]-N,N-dimethyl-1,2-ethanediamine dihydrochloride] | 36 | 167 | 260 | plasma prothrombin time [1]: 22 s; plasma prothrombin time [2]: 34 s |
| NC(CCc1ccc(OCC2CCCCC2)cc1)C1CC1 (stereo not drawn) [Example 37, 4-(Cyclohexylmethoxy)-α-cyclopropylbenzenepropanamine hydrochloride] |  |  |  | plasma prothrombin time [1]: 22 s |
| CCCCCCCCCOc1ccc(CCC(C)NCCN2CCOCC2)cc1 (stereo not drawn) [Example 53, N-[1-Methyl-3-[4-(nonyloxy)phenyl]propyl]-4-morpholineethanamine dihydrochloride] | 23 | 53 | 240 |  |
| CCCCCCCOc1ccc(CC(CN)c2ccc(OC)c(OC)c2)cc1 (stereo not drawn) [Example 20, 4-(Heptyloxy)-β-(3,4-dimethoxy)phenylbenzenepropanamine] | 36 | 74 | > 200 |  |
| CC(CCc1ccc(OCCC(C)(C)C)cc1)N(C)C.Cl (stereo not drawn) [Example 79, 4-(3,3-Dimethylbutoxy)-N,N,α-trimethylbenzenepropanamine hydrochloride] |  |  | 90 | plasma prothrombin time (11 micrograms per milliliter of plasma, hydrochloride): 19 s; plasma prothrombin time (22 micrograms per milliliter of plasma, hydrochloride): 21 s; plasma prothrombin time [3]: 31 s; plasma prothrombin time [4]: 55 s |
| CCCCCOc1ccc(CC(CN)c2ccc(OC)c(OC)c2OC)cc1 (stereo not drawn) [Example 19, 4-(Pentyloxy)-β-(2,3,4-trimethoxy)phenylbenzenepropanamine hydrochloride] |  |  | 174 |  |
| CCCCOc1ccc(CCC(C)N2CCCC2)cc1.Cl (stereo not drawn) [Example 77, 1-[3-[4-(Butoxy)phenyl]-1-methylpropyl]-pyrrolidine hydrochloride] | 23 | 24 | 53 | plasma prothrombin time [1]: 15 s; plasma prothrombin time [2]: 16 s |
| COc1ccc(C(CN)Cc2cccc3ccccc23)cc1 (stereo not drawn) [Example 24, β-(4-Methoxy)phenyl-1-naphthalenepropanamine] | 22 | 28 | 48 |  |

| SMILES | plasma prothrombin time [5] [s] | plasma prothrombin time [6] [s] | plasma prothrombin time [7] [s] | further results |
| --- | --- | --- | --- | --- |
| CCCCCCCCOc1ccc(CC(CN)c2cc(OC)c(OC)c(OC)c2)cc1 (stereo not drawn) [Example 18, 4-(Octyloxy)-β-(3,4,5-trimethoxy)phenylbenzenepropanamine hydrochloride] |  |  | 125 |  |
| COCCOc1ccc(CCC(C)N(C)C)cc1.Cl (stereo not drawn) [Example 76, 4-(2-Methoxyethoxy)-N,N,α-trimethylbenzenepropanamine hydrochloride] | 17 | 17 | 18 |  |
| CCCCCCOc1ccc(CC(CNCC)c2ccccc2)cc1 (stereo not drawn) [Example 28, N-Ethyl-4-(hexyloxy)-β-phenylbenzenepropanamine] | 23 | 35 | 110 | plasma prothrombin time [2]: 17 s |
| CCCCCCCCOc1ccc(CC(CN)c2ccc(-c3ccccc3)cc2)cc1 (racemic) [Example 11, (±)-β-[[4-(Octyloxy)phenyl]methyl][1,1'-biphenyl-4-ethanamine hydrochloride] |  |  | 20 |  |
| CC(CCc1ccc(OCc2ccc(F)cc2)cc1)N(C)C.Cl (stereo not drawn) [Example 82, 4-[(4-Fluorophenyl)methoxy]-N,N,α-trimethylbenzenepropanamine hydrochloride] | 24 | 29 | 75 | plasma prothrombin time [1]: 18 s; plasma prothrombin time [2]: 19 s |
| CCCCCCCOc1ccc(CC(CN)c2ccccc2)cc1.Cl (stereo not drawn) [Example 5, 4-(Heptyloxy)-β-phenylbenzenepropanamine hydrochloride] | 25 | 53 | 190 |  |
| CNCC(Cc1ccc2c(c1)OCO2)c1ccccc1.Cl (stereo not drawn) [Example 33, N-Methyl-β-phenyl-1,3-benzodioxole-5-propanamine hydrochloride] |  |  | 18 |  |
| CC(C)c1ccc(CC(CN)c2ccccc2)cc1.Cl (stereo not drawn) [Example 14, 4-(1-Methylethyl)-β-phenylbenzenepropanamine hydrochloride] |  |  | 101 |  |
| CCCCCCOc1ccc(CC(CNC(C)C)c2ccccc2)cc1.Cl (stereo not drawn) [Example 30, N-Isopropyl-4-(hexyloxy)-β-phenylbenzenepropanamine hydrochloride] |  |  | 69 |  |
| CCCCC(CC)COc1ccc(CC(CN)c2ccccc2)cc1.Cl (stereo not drawn) [Example 3, 4-[(2-Ethylhexyl)oxy]-β-phenylbenzenepropanamine hydrochloride] |  |  |  | prothrombin time (28 micrograms per ml): 16 s; prothrombin time (69 micrograms per ml): 25 s; prothrombin time (139 micrograms per ml): 80 s |
| CCCCCCCCCCOc1ccc(CCC(C)N)cc1 (stereo not drawn) [Example 50, 4-(Decyloxy)-α-methylbenzenepropanamine hydrochloride] | 21 | 36 | 100 |  |
| NCC(Cc1ccc(C(F)(F)F)cc1)c1ccccc1 (stereo not drawn) [Example 35, β-Phenyl-4-(trifluoromethyl)benzenepropanamine] |  |  | 68 |  |
| CCC(CCc1ccc(OCC2CCCCC2)cc1)N(C)C (stereo not drawn) [Example 38, 4-(Cyclohexylmethoxy)-α-ethyl-N,N-dimethylbenzenepropanamine hydrochloride] |  |  |  | plasma prothrombin time [1]: 22 s |
| COc1ccc(C(CN)Cc2ccc(-c3ccccc3)cc2)cc1 (stereo not drawn) [Example 9, β-(4-Methoxy)phenyl[1,1'-biphenyl]-4-propanamine] |  |  | 25 |  |
| COc1cccc(C(CN)Cc2ccc3ccccc3c2)c1OC (stereo not drawn) [Example 25, β-(2,3-Dimethoxyphenyl)-2-naphthalenepropanamine] | 22 | 29 | 50 |  |
| Cl.NCC(Cc1ccc2c(c1)OCO2)c1ccccc1 (stereo not drawn) [Example 34, β-Phenyl-1,3-benzodioxole-5-propanamine hydrochloride] |  |  | 21 |  |
| CCCCCCCCCOc1ccc(CCC(C)NCCN(C)C)cc1 (stereo not drawn) [Example 54, N,N-Dimethyl-N'-[1-methyl-3-[4-(nonyloxy)phenyl]propyl]-1,2-ethanediamine dihydrochloride] | 37 | 99 | > 300 |  |
